Where “and” joins values, the source holds several entries; their conditions need not be identical. Equal values may be shown once.
How the values were obtained:
C. neoformans Sgl1 [1] = target: T1, C. neoformans Sgl1 (Cryptococcus neoformans var. grubii, UniProt J9W473); experiment: Sgl1 inhibition with res-glp substrate (HTS, single-compound dose-response); type: biochemical; details: res-glp as substrate (100 µM), primary screen; read-out: IC50 against Sgl1
Method: (§1) Resorufin-3β-D-glucopyranoside (res-glp, Sigma-Aldrich) enzyme kinetic assays were performed according to methods described by Urban et al.[16] with modifications. Reaction buffer contained 50 mM citric acid, 176 mM K2HPO4, pH 6, 0.01% Tween-20, and 10 mM sodium taurocholate. The reactions were carried out in black 96-well plates using 20 ng of enzyme with 100 μM res-glp substrate. In all, 10 μL/well of res-glp substrate was added to each well and the reaction was initiated by adding 20 μL enzyme (20 ng). After incubation at 37 °C for 30–40 min, the fluorescence was read at an excitation of 570 (±10) nm and an emission of 610 (±10) nm on a VersaMax™ Microplate Reader from Molecular Devices. A standard curve was prepared with serial dilutions of the free fluorophore, resorufin, in the same volume of assay buffer.
A ChemBridge DIVERSet-CL library (San Diego, CA) containing 50,000 compounds was screened to identify small molecules that inhibit C. neoformans Sgl1. The library was prepared in a 96-well plate format containing a cocktail of 10 compounds per well at 1 mM each in 100% DMSO. The cocktail plates were first diluted to 100 μM each (1:10 dilution in Dulbecco’s phosphate-buffered saline, DPBS) resulting in 10% DMSO. In order to screen the compound cocktails at […] in 1% DMSO in a final reaction volume of 30 μL an aliquot of 3 μL was added to 17 μL of buffer containing 20 ng of enzyme and the reaction was started adding 10 μL of 100 μM res-glp. A negative control without enzyme and positive controls with and without DMSO were prepared. The plates were incubated at 37 °C for 40 min.
The Z′-factor was used for the assessment of the efficiency of the HTS assay for each individual plate. Values greater than 0.5 has been considered as an indicator of an excellent screening assay quality.

[2] = tested on: human lung epithelial cancer cell line A549; details: A549 cells, 24 h, MTT
Method: The cells were maintained in Dulbecco’s modified eagle medium containing 10% fetal bovine serum and 1% penicillin–streptomycin. At passage 11, 10^5 cells were transferred into each well of 96-well plates and cultured for 18–24 h for the cells to adhere to the well surface. After, the medium was removed and a fresh medium containing the selected compounds at a concentration range of 1–512 μM were added to the wells. Controls with equivalent serial concentrations of DMSO were also evaluated and compared with a control without DMSO. The plate was incubated at 37 °C with 5% CO2. After 24 h, the supernatant was removed and 50 μL of 5 mg/mL 3-(4,5-dimethylthiazol-2-yl)-2,5-diphenyltetrazoliumbromide (MTT) solution in phosphate-buffered saline (PBS) was added to each well. The plates were incubated for an additional 4 h and the formazan crystals formed inside the cell was dissolved by adding 50 μL DMSO.

C. neoformans Sgl1 [3] = experiment: Resorufin-3β-D-glucopyranoside enzyme kinetic assay and HTS assay parameters; type: biochemical, Cryptococcus neoformans; details: for Picomol of resorufin produced: time 20 min, 8 replicates
Method: as §1, with “buffer. All reactions were linear with respect to time and protein concentration and the pH, temperature, and dimethyl sulfoxide (DMSO) optimal tolerance was verified.” for “buffer.”
Supplementary Figure 6. High-throughput screening assay parameters. a. Resorufin 3β-D-glucopyranoside (res-glp) hydrolysis by Sgl1 releases the fluorescent product resorufin and glucose. b. Detection linearity of the system. c. Temperature evaluation of Sgl1 activity (n=6). d.
Reaction dependence on pH (n=4). e. DMSO tolerance (n=6). f. Enzyme concentration linearity (n=4). The reaction is linear up to 0.4 pmol of Sgl1 in presence of the substrate res-glp (100 µM). Data presented as mean values +/- SD of 2-3 independent experiments performed in duplicate (c-f). g.Time linearity until 50 min (n=4). h. Eight substrate concentrations tested with 0.2 pmol of Sgl1 until 20 min. i. Kinetic curve of Sgl1 (n=4). Error bars represent standard deviation of four independent experiments performed in technical duplicates. j. Kinetic parameters of Sgl1 reaction with res-glp.
(1 picture or pasted object on this page, not shown here)

C. neoformans Sgl1 [4] = target: T1, C. neoformans Sgl1; experiment: Kinetic evaluation of erg-glc and C6-NBD-GlcCer hydrolysis by Sgl1 (Triton X-100 mixed micelles, HPLC); type: biochemical; details: for Km, Michaelis-Menten best-fit value / Vmax, Michaelis-Menten best-fit value, Turnover: source data Fig 1d; for KM: substrate of Sgl1, Triton X-100 mixed micelles, 37 °C
Method: A 50 μL volume of Cn Sgl1 wild type and 50 μL of mixed micelles of lipid and Triton X-100 in 50 mM Bis-Tris buffer with 150 mM NaCl, 5 mM βME, and 5 mM DTT were mixed and incubated at 37 °C for 10 min (erg-glc, Avanti Polar Lipids) and 1 h (C6-NBD-glcCer, Matreya). For the substrate erg-glc the amount of protein was 5 ng. 150 ng protein was used for reactions with C6-NBD-GlcCer. After the incubation period, each reaction was quenched with a 2:1 chloroform:methanol solution and the organic phase was collected and dried. Then, the lipid content was resuspended in 50 μL methanol and applied to HPLC (Agilent Technologies). Total erg-glc and ergosterol was detected using absorbance at 282 nm on a C-8 column with a flow rate of 0.5 ml/min in methanol/water 90:10 ratio buffered with 1 mM ammonium formate and 0.2% formic acid. A 85:15 ratio of the same eluent was used for C6-NBD-GlcCer and C6-NBD-ceramide monitoring the fluorescence at 470/530 nm excitation/emission. The total area of product was normalized by the total area of its respective substrate.

T1 sequence (J9W473 entry or part of it): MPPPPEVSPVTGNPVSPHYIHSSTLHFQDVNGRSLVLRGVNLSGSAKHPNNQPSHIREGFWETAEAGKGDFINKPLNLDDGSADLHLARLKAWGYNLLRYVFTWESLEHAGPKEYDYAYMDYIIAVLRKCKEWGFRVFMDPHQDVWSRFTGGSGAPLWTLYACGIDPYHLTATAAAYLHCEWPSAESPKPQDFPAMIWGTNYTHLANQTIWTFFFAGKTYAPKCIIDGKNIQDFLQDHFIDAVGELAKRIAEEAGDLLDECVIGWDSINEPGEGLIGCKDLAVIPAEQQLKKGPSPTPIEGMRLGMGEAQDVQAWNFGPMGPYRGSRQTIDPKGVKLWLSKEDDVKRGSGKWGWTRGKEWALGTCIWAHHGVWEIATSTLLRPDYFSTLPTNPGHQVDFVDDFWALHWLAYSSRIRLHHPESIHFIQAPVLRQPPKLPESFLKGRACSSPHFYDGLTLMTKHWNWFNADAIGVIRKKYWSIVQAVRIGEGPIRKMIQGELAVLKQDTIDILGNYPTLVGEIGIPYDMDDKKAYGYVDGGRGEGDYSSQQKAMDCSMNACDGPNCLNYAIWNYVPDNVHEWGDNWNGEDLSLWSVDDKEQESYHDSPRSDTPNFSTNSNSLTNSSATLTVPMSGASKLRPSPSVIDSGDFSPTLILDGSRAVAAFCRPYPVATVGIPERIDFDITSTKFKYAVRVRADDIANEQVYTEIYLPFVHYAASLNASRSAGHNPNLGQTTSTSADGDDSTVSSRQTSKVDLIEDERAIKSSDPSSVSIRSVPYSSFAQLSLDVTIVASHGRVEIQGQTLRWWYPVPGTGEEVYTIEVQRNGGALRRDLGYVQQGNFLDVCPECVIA

## Cc1[nH]c2ccc(CNc3nccc(N)n3)cc2c1C [Hit 6]
C. neoformans Sgl1 [1]
  IC50: 2000 nM
[2]
  LD50 (lethal dose 50): 181.3 µM

## O=c1ccc2nc3ccc(O[C@@H]4O[C@H](CO)[C@@H](O)[C@H](O)[C@H]4O)cc3oc-2c1 [Resorufin 3β-D-glp, resorufin-3β-D-glucopyranoside, reference compound]
C. neoformans Sgl1 [3]; 0.8 µM Resorufin 3β-D-glp
  Turnover, min-1 (Mean): 0.1166 min⁻¹
C. neoformans Sgl1 [3]; 1.6 µM Resorufin 3β-D-glp
  Turnover, min-1 (Mean): 0.2022 min⁻¹
C. neoformans Sgl1 [3]; 3.125 µM Resorufin 3β-D-glp
  Turnover, min-1 (Mean): 0.2828 min⁻¹
C. neoformans Sgl1 [3]; 6.25 µM Resorufin 3β-D-glp
  Turnover, min-1 (Mean): 0.5182 min⁻¹
C. neoformans Sgl1 [3]; 12.5 µM Resorufin 3β-D-glp
  Turnover, min-1 (Mean): 0.7736 min⁻¹
C. neoformans Sgl1 [3]; 25 µM Resorufin 3β-D-glp
  Turnover, min-1 (Mean): 1.399 min⁻¹
C. neoformans Sgl1 [3]; 50 µM Resorufin 3β-D-glp
  Turnover, min-1 (Mean): 2.307 min⁻¹
C. neoformans Sgl1 [3]; 100 µM Resorufin 3β-D-glp
  Turnover, min-1 (Mean): 3.899 min⁻¹
C. neoformans Sgl1 [3]; res-glp as Sgl1 substrate, source data Fig S6i
  Vmax, Michaelis-Menten best-fit value, Turnover: 9.522 min⁻¹
C. neoformans Sgl1 [3]; res-glp as Sgl1 substrate, source data Fig S6i, read-out: Km, Michaelis-Menten best-fit value
  Km: 147 µM

## O=c1ccc2nc3ccc(O)cc3oc-2c1 [resorufin]
C. neoformans Sgl1 [3]; substrate concentration 0.8 µM
  Picomol of resorufin produced: 13.6869 Picomol and 10.2624 Picomol and 15.333 Picomol and 8.2899 Picomol and 7.897 Picomol and 8.1513 Picomol and 7.834 Picomol and 9.766 Picomol
C. neoformans Sgl1 [3]; substrate concentration 1.6 µM
  Picomol of resorufin produced: 22.652 Picomol and 16.8084 Picomol and 22.0089 Picomol and 13.8077 Picomol and 14.311 Picomol and 13.7411 Picomol and 16.5589 Picomol and 17.8661 Picomol
C. neoformans Sgl1 [3]; substrate concentration 3.125 µM
  Picomol of resorufin produced: 38.3651 Picomol and 20.7516 Picomol and 22.1703 Picomol and 24.2149 Picomol and 22.4235 Picomol and 18.9404 Picomol and 21.8512 Picomol and 25.5122 Picomol
C. neoformans Sgl1 [3]; substrate concentration 6.25 µM
  Picomol of resorufin produced: 43.9839 Picomol and 34.2216 Picomol and 50.5101 Picomol and 33.7929 Picomol and 44.5629 Picomol and 40.9973 Picomol and 53.26 Picomol and 50.9019 Picomol
C. neoformans Sgl1 [3]; substrate concentration 12.5 µM
  Picomol of resorufin produced: 71.213 Picomol and 36.0642 Picomol and 41.6688 Picomol and 71.5524 Picomol and 70.9838 Picomol and 75.8794 Picomol and 76.3919 Picomol and 81.7237 Picomol
C. neoformans Sgl1 [3]; substrate concentration 25 µM
  Picomol of resorufin produced: 72.1659 Picomol and 113.232 Picomol and 127.381 Picomol and 122.744 Picomol and 134.032 Picomol and 119.303 Picomol and 123.078 Picomol and 139.365 Picomol
C. neoformans Sgl1 [3]; substrate concentration 50 µM
  Picomol of resorufin produced: 180.011 Picomol and 203.084 Picomol and 186.676 Picomol and 209.238 Picomol and 194.059 Picomol and 207.198 Picomol and 188.267 Picomol and 183.529 Picomol
C. neoformans Sgl1 [3]; substrate concentration 100 µM
  Picomol of resorufin produced: 305.03 Picomol and 313.72 Picomol and 318.728 Picomol and 338.834 Picomol and 336.378 Picomol and 332.942 Picomol and 323.184 Picomol and 353.074 Picomol

## CCCCCCCCCCCCCC=CC(O)C(COC1OC(CO)C(O)C(O)C1O)NC(=O)CCCCCNc1ccc([N+](=O)[O-])c2nonc12 (stereo not drawn) [C6-NBD-GlcCer, C6-NBD-glucosylceramide]
C. neoformans Sgl1 [4]; 0.3 mol% C6-NBD-GlcCer
  Turnover (mol C6-NBD-Ceramide / sec/ mol enzyme): 0.0009 mol C6-NBD-Ceramide / sec/ mol enzyme and 0.0010 mol C6-NBD-Ceramide / sec/ mol enzyme
C. neoformans Sgl1 [4]; 0.7 mol% C6-NBD-GlcCer
  Turnover (mol C6-NBD-Ceramide / sec/ mol enzyme): 0.0024 mol C6-NBD-Ceramide / sec/ mol enzyme and 0.0025 mol C6-NBD-Ceramide / sec/ mol enzyme
C. neoformans Sgl1 [4]; 1.0 mol% C6-NBD-GlcCer
  Turnover (mol C6-NBD-Ceramide / sec/ mol enzyme): 0.0039 mol C6-NBD-Ceramide / sec/ mol enzyme and 0.0038 mol C6-NBD-Ceramide / sec/ mol enzyme
C. neoformans Sgl1 [4]; 1.5 mol% C6-NBD-GlcCer
  Turnover (mol C6-NBD-Ceramide / sec/ mol enzyme): 0.0051 mol C6-NBD-Ceramide / sec/ mol enzyme
C. neoformans Sgl1 [4]; 2.0 mol% C6-NBD-GlcCer
  Turnover (mol C6-NBD-Ceramide / sec/ mol enzyme): 0.0066 mol C6-NBD-Ceramide / sec/ mol enzyme and 0.0051 mol C6-NBD-Ceramide / sec/ mol enzyme
C. neoformans Sgl1 [4]; 2.5 mol% C6-NBD-GlcCer
  Turnover (mol C6-NBD-Ceramide / sec/ mol enzyme): 0.0073 mol C6-NBD-Ceramide / sec/ mol enzyme and 0.0067 mol C6-NBD-Ceramide / sec/ mol enzyme
C. neoformans Sgl1 [4]; 3.0 mol% C6-NBD-GlcCer
  Turnover (mol C6-NBD-Ceramide / sec/ mol enzyme): 0.0085 mol C6-NBD-Ceramide / sec/ mol enzyme and 0.0080 mol C6-NBD-Ceramide / sec/ mol enzyme
C. neoformans Sgl1 [4]; 3.5 mol% C6-NBD-GlcCer
  Turnover (mol C6-NBD-Ceramide / sec/ mol enzyme): 0.0076 mol C6-NBD-Ceramide / sec/ mol enzyme and 0.0074 mol C6-NBD-Ceramide / sec/ mol enzyme
C. neoformans Sgl1 [4]; 4.0 mol% C6-NBD-GlcCer
  Turnover (mol C6-NBD-Ceramide / sec/ mol enzyme): 0.0074 mol C6-NBD-Ceramide / sec/ mol enzyme and 0.0082 mol C6-NBD-Ceramide / sec/ mol enzyme
C. neoformans Sgl1 [4]; 4.5 mol% C6-NBD-GlcCer
  Turnover (mol C6-NBD-Ceramide / sec/ mol enzyme): 0.0064 mol C6-NBD-Ceramide / sec/ mol enzyme and 0.0070 mol C6-NBD-Ceramide / sec/ mol enzyme
C. neoformans Sgl1 [4]; 5.0 mol% C6-NBD-GlcCer
  Turnover (mol C6-NBD-Ceramide / sec/ mol enzyme): 0.0075 mol C6-NBD-Ceramide / sec/ mol enzyme and 0.0072 mol C6-NBD-Ceramide / sec/ mol enzyme
C. neoformans Sgl1 [4]
  Km, Michaelis-Menten best-fit value: 1.734 mol%
  Vmax, Michaelis-Menten best-fit value, Turnover: 0.01082 s⁻¹
  KM: 1.73 ± 0.37 mol%

## CC(C)[C@@H](C)/C=C/[C@@H](C)[C@H]1CC[C@H]2C3=CC=C4C[C@@H](O[C@@H]5O[C@H](CO)[C@@H](O)[C@H](O)[C@H]5O)CC[C@]4(C)[C@H]3CC[C@]12C [erg-glc, ergosterol 3β-D-glucoside]
C. neoformans Sgl1 [4]; 0.07 mol% Erg-glc
  Turnover (mol ergosterol / sec/ mol enzyme): 0.1064 mol ergosterol / sec/ mol enzyme and 0.1082 mol ergosterol / sec/ mol enzyme
C. neoformans Sgl1 [4]; 0.10 mol% Erg-glc
  Turnover (mol ergosterol / sec/ mol enzyme): 0.1849 mol ergosterol / sec/ mol enzyme and 0.1742 mol ergosterol / sec/ mol enzyme
C. neoformans Sgl1 [4]; 0.20 mol% Erg-glc
  Turnover (mol ergosterol / sec/ mol enzyme): 0.3045 mol ergosterol / sec/ mol enzyme and 0.2862 mol ergosterol / sec/ mol enzyme
C. neoformans Sgl1 [4]; 0.50 mol% Erg-glc
  Turnover (mol ergosterol / sec/ mol enzyme): 0.4688 mol ergosterol / sec/ mol enzyme and 0.4091 mol ergosterol / sec/ mol enzyme
C. neoformans Sgl1 [4]; 0.90 mol% Erg-glc
  Turnover (mol ergosterol / sec/ mol enzyme): 0.6080 mol ergosterol / sec/ mol enzyme and 0.5033 mol ergosterol / sec/ mol enzyme
C. neoformans Sgl1 [4]; 1.20 mol% Erg-glc
  Turnover (mol ergosterol / sec/ mol enzyme): 0.5944 mol ergosterol / sec/ mol enzyme and 0.5189 mol ergosterol / sec/ mol enzyme
C. neoformans Sgl1 [4]; 2.00 mol% Erg-glc
  Turnover (mol ergosterol / sec/ mol enzyme): 0.6438 mol ergosterol / sec/ mol enzyme and 0.6016 mol ergosterol / sec/ mol enzyme
C. neoformans Sgl1 [4]
  Km, Michaelis-Menten best-fit value: 0.3118 mol%
  Vmax, Michaelis-Menten best-fit value, Turnover: 0.721 s⁻¹
  KM: 0.31 ± 0.04 mol%

## Cc1ccsc1CN(CCN(C)C)Cc1ccc2nonc2c1 [Hit 10]
[2]
  LD50 (lethal dose 50): 301.8 µM

Source: PMC8497620, “Structure and inhibition of Cryptococcus neoformans sterylglucosidase to develop antifungal agents” (Nature Communications, 2021)
